SMILES strings stand for the structures.

In one series the test system is CF-1 male albino mice. Description: Maximal Electroshock Test (MES). In kind it is in vivo. Particulars: oral; for MES Activity (in words): time not stated. As for the experimental part: Anticonvulsant activity was determined using the MES test, run according to the procedure described in detail below. Swinyard E A, Woodhead J H, White H S, Franklin M R. Experimental selection, quantification, and evaluation of anticonvulsants. In Levy R H, et al., eds. Antiepileptic Drugs. 3rd ed. New York: Raven Press, 1989:85-102
CF-1 male albino mice (25-35 g) were fasted for 16 hours before testing. Mice were randomly selected into control and test groups, with the animals dosed with vehicle or test compound, at varying concentrations, respectively. On the study date, at 30 minutes prior to shock, the mice were orally dosed with vehicle (0.5% methylcellulose) or test compound (100-300 mg/kg). Seizures were induced by trans-corneal electric shock using a 60-Hz alternating current, 50 mA, delivered for 0.2 sec. The mice in the test groups were subjected to electrical stimulus at time intervals between 15 minutes and 4 hours following administration of test compound. […] The test was complete when the entire course of the convulsion has been observed (typically, less than 1 minute after electrical stimulation), and the mice were then immediately euthanized by carbon dioxide inhalation.
Abolition of the full body tonic extensor component of the seizure was taken as the endpoint of the test. […] The ED50 value of the test compound (calculated when appropriate) was the calculated dose required to block the hind limb tonic-extensor component of the MES-induced seizure in 50% of the rodents tested. A probit analysis was used to calculate the ED50 and 95% fiducial limits (FL).
Representative compounds of the present invention were tested according to the procedure described above, with results as listed in Table 4 below. Results are listed as number of mice with full body tonic extension prevented/total number of mice tested @ time (at a given test compound dosage level).
(In general: In the maximal electroshock model the usual endpoint is tonic extension of the hind limbs.)

A further series relates to carbonic anhydrase. The following applies: background statement, no assay details; cited from earlier work.

What is called melting point is the temperature of the solid-liquid transition. The compound `NS(=O)(=O)OC[C@H]1COc2cc(Cl)c(Cl)cc2O1` [ID No. 27, Sulfamic acid, 6.7 dichloro-2,3-dihydro-benzo[1,4]dioxin-2-ylmethyl ester] had a melting point of 109 to 111 °C. In the series on CF-1 male albino mice (100 mg/kg, @ 4 h), the “MES Activity: number of mice with full body tonic extension prevented/total number of mice tested” value is 5/5 @ 4 h (100 mg/kg).

In the case of `CC1(C)O[C@@H]2[C@@H](CO[C@@]3(COS(N)(=O)=O)OC(C)(C)O[C@@H]23)O1` [Topiramate], the carbonic anhydrase inhibition entry in the series on carbonic anhydrase is “single digit micromolar”.

As for `CN(CC1COc2ccccc2O1)S(N)(=O)=O` (stereo not shown) [ID No. 7, N-(2,3-Dihydro-benzo[1,4]dioxin-2-ylmethyl)-N-methylsulfamide], the melting point was 97 to 98 °C.

Regarding `Nc1ccc2c(c1)O[C@@H](CNS(N)(=O)=O)CO2` [ID No. 36, (2S)-(−)-N-(7-Amino-2,3-dihydro-benzo[1,4]dioxin-2-ylmethyl)-sulfamide], the “MES Activity (in words)” value in the series with CF-1 male albino mice (100 mg/kg) is “Inactive @ 100 and 300 mg/kg”; with CF-1 male albino mice (300 mg/kg), “Inactive @ 100 and 300 mg/kg”.

On to `NS(=O)(=O)NC[C@H]1COc2cc(Cl)c(Cl)cc2O1` [ID No. 29, (2S)-(−)-N-(6,7 Dichloro-2,3-dihydro-benzo[1,4]dioxin-2-ylmethyl)-sulfamide], for which the melting point fell in the range of 119 to 121 °C. Besides, the “MES Activity: number of mice with full body tonic extension prevented/total number of mice tested” value in the series with CF-1 male albino mice (100 mg/kg, @ 4 h) is given as 3/5 @ 4 h (100 mg/kg).

In turn, `NS(=O)(=O)OCC1CCc2ccccc2O1` (stereo not shown) [ID No. 11, Chroman-2-ylmethylsulfamate] came in with a melting point of 87 to 90 °C.

Compound `NS(=O)(=O)OC[C@H]1COc2cc(Cl)ccc2O1` (stereo in doubt) [ID No. 12, Sulfamic acid, 6-chloro-2,3-dihydro-benzo[1,4]dioxin-2-ylmethyl ester] showed a melting point of 113 to 116 °C.

Compound `CN(C)S(=O)(=O)NCC1COc2ccccc2O1` (stereo not shown) [ID No. 6, N-(2,3-Dihydro-benzo[1,4]dioxin-2-ylmethyl)-N′,N′ dimethylsulfamide] registered a melting point of 76 to 78 °C.

With `Cc1ccc2c(c1)O[C@@H](CNS(N)(=O)=O)CO2` [ID No. 19, (2S)-(−)-N-(7-Methyl-2,3-dihydro-benzo[1,4]dioxin-2-ylmethyl)-sulfamide], the “MES Activity: number of mice with full body tonic extension prevented/total number of mice tested” value in the series with CF-1 male albino mice (300 mg/kg, @ 0.5 h) is on record as 5/5 @ 0.5 h (300 mg/kg).

For `NS(=O)(=O)NCCC1COc2ccccc2O1` (stereo not shown) [ID No. 16, 2-(2,3-Dihydro-benzo[1,4]dioxin-2-yl)-ethylsulfamide], the melting point was 101 to 103 °C. The “MES Activity: number of mice with full body tonic extension prevented/total number of mice tested” value in the series with CF-1 male albino mice (300 mg/kg, @ 0.5 h) is on record as 5/5 @ 0.5 h (300 mg/kg).

As to `NS(=O)(=O)NC[C@H]1COc2ccccc2O1` [ID No. 4, (2S)-(−)-N-(2,3-Dihydro-benzo[1,4]dioxin-2-ylmethyl)-sulfamide], in the series on CF-1 male albino mice (300 mg/kg, @ 1 h), the “MES Activity: number of mice with full body tonic extension prevented/total number of mice tested” value is reported as 5/5 @ 1 h (300 mg/kg).

On to `NS(=O)(=O)NCC1CCc2ccccc2O1` (stereo not shown) [ID No. 10, Chroman-2-ylmethylsulfamide], for which the melting point was 100 to 101 °C.

The values above are taken from patent US8084490B2, “Sulfamate and sulfamide derivatives useful for the treatment of epilepsy and related disorders” (Janssen Pharmaceutica N.V., priority 2004, dated 2011).
